From patent US7491733B2, “Bicyclic guanidine derivatives and therapeutic uses thereof” (Merck Patent GmbH, priority 2001, dated 2009)
Counter-ions that a name gives are not always drawn. Like-named read-outs stand apart in the source and are kept apart here.

Assays:
[1] = tested on: Nostz Rats; assay: Oral antidiabetic activity in Nostz rats (non-insulin-dependent diabetes induced by neonatal steptozotocin); change in glycaemia; assay type: in vivo; conditions: Rattus norvegicus, blood sample two hours after the final administration, diabetic rats; for change in vivo at 20 mg/kg: 20 mg/kg/day; for change in vivo at 200 mg/kg: 200 mg/kg/day
Protocol: Study of the Antidiabetic Activity in Nostz Rats
The oral antidiabetic activity of the compounds of the formula (I) was determined on an experimental model of non-insulin-dependent diabetes, induced in the rats with steptozotocin.
The model of non-insulin-dependent diabetes is obtained in the rats by means of a neonatal injection (on the day of birth) of steptozotocin.
The diabetic rats used are eight weeks old. The animals are housed, from the day of birth to the day of the experiment, in an animal house at a regulated temperature of 21 to 22° C. and subjected to a fixed cycle of light (from 7 a.m. to 7 p.m.) and darkness (from 7 p.m. to 7 a.m.). Their food consisted of a maintenance diet, and water and food were given “ad libitum”, with the exception of fasting two hours before the tests, during which period the food is removed (post-absorptive state).
The rats are treated orally for one (D1) or four (D4) days with the test product. Two hours after the final administration of the product and 30 minutes after the animals have been anaesthetised with pentobarbital sodium (Nembutal®), a 300 μl blood sample is taken from the end of the tail.
By way of example, results obtained are collated in Table 2.

[2] = 24 h, one day of treatment (D1), read-out: percentage change in the glycaemia on D1 relative to D0
[3] = 96 h, four days of treatment (D4), read-out: percentage change in the glycaemia on D4 relative to D0

| Structure (SMILES) | melting point [°C] | change in vivo at 20 mg/kg [1, 2] [%] | change in vivo at 200 mg/kg [1, 2] [%] | change in vivo at 20 mg/kg [1, 3] [%] | change in vivo at 200 mg/kg [1, 3] [%] |
| --- | --- | --- | --- | --- | --- |
| CN(Cc1nc2ccccc2[nH]1)C(=N)N (as salt: hydrochloride) [Compound 6] | 253 to 255 | – | – | – | – |
| COc1cc2c(cc1OC)CC(CNC(=N)N)C2 [Compound 11] | – | -1 | -8 | -8 | -14 |
| CN(Cc1nc2ccccc2s1)C(=N)N [Compound 1, 2-(aminoiminomethyl(methylamino)methyl)-benzothiazole hydrochloride] | – | 5 | -9 | -4 | -23 |
| COc1ccc2[nH]c(CNC(=N)N)cc2c1 [Compound 13] | – | – | -16 | – | -26 |
| N=C(N)NCc1cc2ccccc2o1 [Compound 15] | – | -23 | -29 | -28 | -31 |
| CN(Cc1nc2ccccc2[nH]1)C(=N)N [Compound 6] | – | 3 | -6 | 0 | -16 |
| N=C(N)NCc1nc2ccccc2s1 [Compound 5] | – | -18 | -30 | -3 | -26 |
| N=C(N)NCc1nc2ccccc2[nH]1 [Compound 2, 2-(aminoiminomethylamino)methylbenzimidazole hydrochloride] | – | -17 | -10 | -13 | -25 |
| N=C(N)NCc1cc2ccccc2[nH]1 [Compound 7] | – | -5 | -19 | -9 | -28 |
| N=C(N)NCC1Cc2ccccc2C1 [Compound 3, 2-(aminoiminomethylamino)methylindane sulfate] | – | 2 | -14 | -10 | -29 |
| N=C(N)NCC1Cc2ccccc2N1 (centres unmarked) [Compound 8] | – | -7 | -10 | -12 | -9 |
| COc1ccc2c(c1)cc(CNC(=N)N)n2C [Compound 12] | – | – | -22 | – | -26 |

Second part, led by results:

| melting point [°C] | Structure (SMILES) | change in vivo at 20 mg/kg [1, 2] [%] | change in vivo at 200 mg/kg [1, 2] [%] | change in vivo at 20 mg/kg [1, 3] [%] | change in vivo at 200 mg/kg [1, 3] [%] |
| --- | --- | --- | --- | --- | --- |
| 171 to 173 | N=C(N)NCc1nc2ccccc2[nH]1 (as salt: hydrochloride) [Compound 2, 2-(aminoiminomethylamino)methylbenzimidazole hydrochloride] | – | – | – | – |
| 187 to 189 | N=C(N)NCC1Cc2ccccc2S1 (centres unmarked) [Compound 10] | -3 | -21 | -5 | -25 |
| 196 to 198 | N=C(N)NCc1nc2ccccc2s1 (as salt: hydrochloride) [Compound 5] | – | – | – | – |
| 213 to 215 | COc1ccc2[nH]c(CNC(=N)N)cc2c1 (as salt: sulfate) [Compound 13] | – | – | – | – |
| 203 to 205 | CN(Cc1nc2ccccc2s1)C(=N)N (as salt: hydrochloride) [Compound 1, 2-(aminoiminomethyl(methylamino)methyl)-benzothiazole hydrochloride] | – | – | – | – |
| 244 to 247 | N=C(N)NCc1cc2ccccc2o1 (as salt: sulfate) [Compound 15] | – | – | – | – |
| 139 to 141 | N=C(N)NCC1Cc2ccccc2O1 (centres unmarked) [Compound 9] | – | – | – | – |
| 209 to 211 | CN(CC1=Cc2ccccc2C1)C(=N)N (as salt: hydrochloride) [Compound 16] | – | – | – | – |
| 231 to 233 | N=C(N)NCC1Cc2ccccc2C1 (as salt: sulfate) [Compound 3, 2-(aminoiminomethylamino)methylindane sulfate] | – | – | – | – |
| > 250 | N=C(N)NCC1Cc2cc(F)c(F)cc2C1 (as salt: sulfate) [Compound 17] | – | – | – | – |
| 189 to 191 | N=C(N)NCC1Cc2ccccc2N1 (centres unmarked) (as salt: hemisulfate) [Compound 8] | – | – | – | – |
| 181 to 183 | Cn1c(CNC(=N)N)cc2cc(F)ccc21 (as salt: hydrochloride) [Compound 14] | – | – | – | – |
| 233 to 235 | COc1ccc2c(c1)cc(CNC(=N)N)n2C (as salt: sulfate) [Compound 12] | – | – | – | – |
| 191 to 193 | COc1cc2c(cc1OC)CC(CNC(=N)N)C2 (as salt: sulfate) [Compound 11] | – | – | – | – |
